Reference: US6962930B1, “Compounds, compositions and method suitable for amelioration of withdrawal syndromes and withdrawal-induced brain damage” (Lohocla Research Corporation, priority 1997, dated 2005)
Where two headings read alike, the source gives them in different places.

Columns and labels:
[1] = system: ethanol withdrawal-induced seizures in C57BL/6 mice; test: Ethanol withdrawal-induced seizures; type: in vivo; conditions: i.p. at 0700, 1100 and 1400 hours; (±)HA-966 3, 10 or 17 mg/kg; 7-Cl kynurenic acid 10, 17 or 30 mg/kg; carbamazepine 17, 30 or 50 mg/kg
Excerpt: Male C57BL/6 mice were housed individually. One group of mice were each given a measured amount of liquid diet (BioServ) containing 6.7% ethanol (v/v) and a second, control group of mice each received the same diet with maltodextrin substituted isocalorically for ethanol, as their sole nutrient source for 7 days. A description of such a test can be found in Grant, K. A., et al., “ETHANOL WITHDRAWAL SEIZURES AND THE NMDA RECEPTOR COMPLEX,” Eur. J. Pharmacol., 176 289–296, (1990), the relevant disclosures of which are incorporated herein by reference. Pair-fed mice were given a volume of liquid diet equal to the average volume that the ethanol-fed mice consumed on the previous day. This treatment regimen produces mice that are functionally tolerant to and physically dependent on ethanol. Beginning at 0700 hours on the eighth day of the diet, ethanol-containing diet was replaced with control liquid diet (“withdrawal”).
Withdrawal seizure severity was assessed by measuring the incidence of handling-induced and spontaneous seizures, which were rated on a rating scale of 0 to 4, modified from a rating scale described by Grant, K. A., et al. in the above cited article. The rating scale was as follows: 0, little or no reaction; 1, slight jerkiness upon handling; 2, excitability increasing in magnitude to a clonic-tonic seizure; 3, spontaneous or instantaneous clonic-tonic seizure; 4, death while in a seizure. The mice were rated for seizure severity at 2, 4, 6, 7, 8, 9, 10, 11, 12 and 24 hours after ethanol withdrawal. Groups of ethanol-fed mice were injected intraperitoneally at 0700, 1100 and 1400 hours with saline, 3, 10 or 17 mg/kg (±)HA-966 (FIG. 5A) or 10, 17 or 30 mg/kg 7-Cl kynurenic acid (FIG. 5B).
Male C57BL/6 mice were fed ethanol in a liquid diet and the withdrawal seizure severity was assessed as described in EXAMPLE 5. Groups of ethanol-fed mice received a single injection (i.p.) of either vehicle (4% Tween-80, 0.5% carboxymethylcellulose in 0.9% saline) alone or of 100 mg/kg DCUK-OMe suspended in the vehicle administered at 0900 hours. The results are presented in FIG. 6A as the median withdrawal scores of vehicle-injected (N=14) or DCUK-OMe injected (N=6) mice in which * denotes P<0.05, statistically compared to vehicle-injected mice, in the Mann-Whitney U test. FIG. 6B presents the same data as the total withdrawal score, defined as the area enclosed by the curve connecting median withdrawal scores plotted against time as in FIG. 6A. The mean total withdrawal scores±SEM for the vehicle-injected group and DCUK-OMe-injected groups are plotted in which * denotes P<0.05, statistically compared to vehicle-injected mice, by the Student t-test.

naive C57BL/6 mice = test: Accelerating rotarod, C57BL/6 mice; type: in vivo; conditions: 50 mg/kg i.p., 15 to 120 min after injection
Procedure: Naive C57BL/6 mice were trained to remain on an accelerating rotarod (diameter 3 cm, 0–30 rpm over 5 min) for six consecutive trials. A description of this test for the acute incoordinating/ataxic effects of sedative/hypnotic drugs such as ethanol can be found in Hoffman, P. L., et al., Life Sciences, 41 611–619 (1987), the relevant disclosures of which are incorporated herein by reference.
The amount of time the mice remained on the rotarod during their last trial was used as their “base-line” score. The mice were then treated with saline (n=10) or 50 mg/kg (±)HA-966 (n=5). The length of time the mice remained on the rotarod was redetermined at 15, 30, 60, 90, and 120 min after drug injection (i.p.). Results for each mouse at each time point were expressed as a ratio (percentage) of their pre-injection base-line time.

[2] = biological target: T1, strychnine-insensitive glycine binding site on the NMDA receptor (Rattus norvegicus, UniProt P35439); test: [3H]5,7-DCKA binding to rat cortical membranes; conditions: 20 nM [3H]5,7-DCKA
T1 construct: from tissue; host or cells: rat cerebral cortex, crude synaptic (buffy coat) membranes
Procedure: Male Sprague-Dawley rats were killed, their brains removed, and their cerebral cortices dissected and binding of [^3H]5,7-dichlorokynurenate ([^3H]5,7-DCKA) assayed. [^3H]5,7-DCKA binding assays were performed in crude synaptic membranes prepared by a modification of the method of Jones, et al., J. Pharmacol. Methods, 21 161–168 (1989) the relevant disclosures of which are incorporated herein by reference. The pelleted “buffy coat”fraction was obtained by centrifugation and frozen at about −80° C. for at least 18 hours. On the day that the binding assays were performed, the pelleted membranes were resuspended in 50 mM HEPES-KOH buffer (pH 7.8) containing 0.08% TRITON® X-100. After stirring for about 30 min at about 4° C., the membranes were pelleted by recentrifugation and then washed twice by resuspension in buffer and centrifugation.
Binding assays were performed in 0.5 ml volume using 150–200 μg of tissue, 20 nM [^3H]5,7-DCKA and 3–300 μM DCUKA or MeO-DCUKA or 1–100 μM DCUK-OMe (all concentrations are final concentrations in 0.6% dimethyl sulfoxide (DMSO)). Incubations were performed for about 45 min at about 4° C. followed by termination by centrifugation. Bound radioactivity was quantitated by liquid scintillation spectroscopy. Non-specific binding was defined with 1 mM glycine.

[3] = biological target: voltage-sensitive sodium channels; test: [3H]BTX binding to rat cortical synaptosomes
[4] = biological target: T2, NR1a/NR2A recombinant receptors (Homo sapiens, UniProt Q05586); test: NMDA-induced currents in oocytes expressing NR1a/NR2A; type: cell-based; conditions: 100 μM NMDA, 50 μM DCUKA, increasing glycine up to 100 μM
T2 construct: expressed in transfected cells; host or cells: Xenopus laevis oocytes, nuclear cDNA injection
Procedure: (§1) Oocytes were obtained from Xenopus laevis frogs (Nasco or Xenopus I) kept in aquarium tanks at 19–21° C., on a 12 hr light/dark cycle. Mature females were anesthetized by immersion for approximately 30 min in a 0.12% 3-aminobenzoic acid ethyl ester solution, a small incision was made in the abdominal wall and a piece of ovary was removed and placed in Modified Barth's solution (MBS; in mM) containing 88 NaCl, 1 KCl, 10 HEPES, 0.82 MgSO4, 2.4 NaHCO3, 0.91 CaCl2, 0.33 Ca(NO3)2 (pH 7.5). To facilitate manual dissection of oocytes, a section of ovary was transferred from MBS to a hypertonic buffer containing 108 mM NaCl, 2 mM KCl, 2 mM EDTA, 10 mM HEPES, pH 7.5 and theca and epithelial layers of mature oocytes (stages V and VI) were removed with surgical forceps. The follicular layer was removed by a 10 min immersion in 0.5 mg/ml of collagenase in buffer containing 83 mM NaCl, 2 mM KCl, 1 mM MgCl2 and 5 mM HEPES.
(§2) Human NR1a, NR2A and NR2B cDNAs in pCDNA-1Amp were transformed and amplified in XL-1 Blue cells and purified with the MaxPrep Qiagen kit. Oocytes were injected with cDNA into the nucleus in the following concentrations: NR1a/2A cDNAs 0.75 ng/30 nl 1:1 ratio, NR1a/2B cDNAs 3.0 ng/30 nl: 1:1 ratio. Injections were made with micropipettes (10 μm tip diameter) connected to a Drummond micropipettor attached to a micromanipulator. After injection, oocytes were individually placed in wells of 96-well microtiter plates containing incubation medium (MBS supplemented with 10 mg/l streptomycin, 10,000 U/l penicillin G, 50 mg/l gentamicin, 2 mM sodium pyruvate, 0.5 mM theophylline) that had been sterilized by passage through a […]. Oocytes were incubated at 19° C. for 2 to 4 days after injection.
(§3) Oocytes were placed in a rectangular chamber (approximately […]) and perfused (2 ml/min) with frog Ringer (in mM) containing 115 NaCl, 2.5 KCl, 1.8 CaCl2, 10 HEPES (pH 7.2). […] Control responses were always measured before and after addition of the DCUKA. […] Data are expressed as the % inhibition of the agonist response obtained in the absence of the drug.

[5] = biological target: T3, NR1a/NR2B recombinant receptors (Homo sapiens, UniProt Q05586); test: NMDA-induced currents in oocytes expressing NR1a/NR2B; type: cell-based; conditions: 100 μM NMDA, 50 μM DCUKA, increasing glycine
T3 construct: expressed in transfected cells; host or cells: Xenopus laevis oocytes, nuclear cDNA injection
Procedure: as §1, §2, §3

[6] = biological target: T1, strychnine-insensitive glycine binding site on the NMDA receptor; conditions: none* = no displacement at 64 μM carbamazepine; taken from McCabe et al. 1993; cited from earlier work
[7] = system: heat shock protein (HSP72) in the hippocampus of C57BL/6 mice; test: KA-induced increase in HSP72, Western blot; type: in vivo; conditions: 100 mg/kg i.p. 30 min before KA 30 mg/kg i.p., hippocampus at 24 hours
Procedure: See, for example, Gonzales, M. F. et al., “HEAT SHOCK PROTEINS AS MARKERS OF NEURAL INJURY,” Mol. Brain Res., 6 93–100 (1989), the relevant portions of which are incorporated herein by reference.
Groups of male C57BL/6 mice separately received either (1) no injections (Naive), (2) KA injections (30 mg/kg, i.p.), (3) 100 mg/kg MeO-DCUKA administered intraperitoneally, or (4) a pretreatment of 100 mg/kg MeO-DCUKA administered (vehicle as in Example 9) intraperitoneally about 30 minutes before receiving an injection of KA (30 mg/kg, i.p.). All of the mice were killed 24 hours later, their brains removed and the hippocampus dissected. HSP72 protein levels were determined in sodium dodecylsulfate (SDS)-solubilized hippocampal lysates by SDS-PAGE electrophoretic separation and subsequent Western blot analysis using antibodies specific for HSP72/73 proteins. Immunoreactive bands were visualized on film using enhanced chemiluminescence and quantitated by image analysis.

Swiss-Webster mice = test: Ethanol-induced loss of righting reflex; type: in vivo; conditions: i.p. 30 minutes before ethanol; DCUK-OMe 100 mg/kg, DZP 1 mg/kg
Procedure: Swiss-Webster mice were pretreated (i.p.) with 100 mg/kg DCUK-OMe or 1 mg/kg diazepam (DZP) (in 5% Tween-80, 20% Intralipid) 30 minutes before receiving an i.p. administration of ethanol (either 2.3 or 3.2 g/kg, 20% v/v in saline.). The duration of the ethanol-induced loss of righting reflex (defined as the inability of the mouse to right itself when placed on its back in a trough) was measured. […] Since withdrawal signs are many times evident in individuals whose blood ethanol levels are dropping but are far from zero, the DCUK compounds would have an advantage over DZP in that the CNS depressant effects of ethanol would not be accentuated by DCUK compounds if the DCUK compounds are used in an alcohol-intoxicated individual.

naive Swiss-Webster mice = test: Accelerating rotarod, Swiss-Webster mice; conditions: i.p.; DCUK-OMe 100 or 500 mg/kg, diazepam 1 mg/kg, carbamazepine 50 mg/kg
[8] = depolarizing conditions (135 mM KCl), read-out: IC50 (μM) [3H]BTX binding, values in parentheses
[9] = non-depolarizing conditions, none = no displacement at 100 μM, read-out: IC50 (μM) [3H]BTX binding

NC1CCN(O)C1=O (racemic) [(±)HA-966, 3-amino-1-hydroxypyrrolidin-2-one]
ethanol withdrawal seizure severity [1]: did not significantly reduce seizure severity
rotarod performance (ataxia/incoordination) (naive C57BL/6 mice): impaired in their ability to remain on the rotarod at all time points tested

O=C(O)c1cc(=O)c2c(Cl)cc(Cl)cc2[nH]1 [5,7-DCKA, 5,7-dichlorokynurenate, reference compound]
IC50 [2]: 0.11 µM
IC50 (μM) [3H]BTX binding ([3]; non-depolarizing conditions, none = no displacement at 100 μM): none
reversal by glycine of inhibition of NMDA-induced currents [4]: competitively antagonizes NMDA receptors regardless of subunit composition
reversal by glycine of inhibition of NMDA-induced currents [5]: competitively antagonizes NMDA receptors regardless of subunit composition

O=C(O)c1cc(O)c2ccc(Cl)cc2n1 [7-Cl kynurenic acid]
ethanol withdrawal seizure severity [1]: did not significantly reduce seizure severity

NC(=O)N1c2ccccc2C=Cc2ccccc21 [Carbamazepine, carbamazepine, reference compound]
IC50 [3, 8]: 56 µM
IC50 [3, 9]: 71 µM
ethanol withdrawal seizure severity [1]: no significant reduction of severity or the duration of the signs of withdrawal
IC50 (μM) [3H]5,7-DCKA binding [6]: none*

COc1ccccc1N(C(=O)Nc1cc(C(=O)O)nc2cc(Cl)cc(Cl)c12)c1ccccc1 [MeO-DCUKA]
IC50 [2]: 35 µM
IC50 [3, 8]: 30 µM
IC50 [3, 9]: 64 µM
KA-induced increase in HSP72 protein levels [7]: prevented

CN1C(=O)CN=C(c2ccccc2)c2cc(Cl)ccc21 [diazepam, reference compound]
duration of ethanol-induced loss of righting reflex (LORR) (Swiss-Webster mice): significant (*P<0.05) enhancement
rotarod performance (ataxia/incoordination) (naive Swiss-Webster mice): produced significant incoordination
